Broadly, the IC50 is the concentration needed to halve the response being measured. A lower IC50 goes with greater potency in that assay. As a reminder, the TD50 is the dose at which the toxic effect under study appears in half of the subjects. Lower therefore signals harm at a small dose.

The values that follow come from patent US5508401A, “Substituted dibenzo[a,d]cycloheptene NMDA antagonists” (priority 1991, dated 1996).

Data set [1] concerns NMDA. Briefly: Inhibition of NMDA-induced lethality in mice. It counts as in vivo, male Swiss-albino mice (CD-1 strain). Conditions: for ED50 Inhibition of NMDA-Induced Lethality / Percent of animals which survived at the dose indicated / Efficacy Ratio (ED50/TD50): ip, mice; for ED50 Inhibition of NMDA-Induced Lethality: dose required to produce 50% survival rate, NMDA 195 mg/kg i.p. 30 min after compound; for Percent of animals which survived at the dose indicated: NMDA 195 mg/kg i.p.; for Efficacy Ratio (ED50/TD50): NMDA-induced lethality vs traction reflex deficit (ataxia). The method, then: The mice were pretreated with the representative test compounds followed thirty minutes later with NMDA (195 mg/kg, i.p., the ED90 dose for generalized myoclonus). The mice were then observed for 30 minutes, noting the latency of onset of generalized myoclonus (uncontrollable hind leg scratching or limbs and/or torso muscle jerking with loss of […] reflex) and death. From the latter, the ED50 for survival is determined. In this standard experimental test procedure, the specific compounds tested and their activity, which representatively establish the activity for all the compounds herein, are presented in Table I as follows:
(§1) NMDA-Induced Lethality and Traction Reflex Deficit (Ataxia)
Of Lethality Reflex Deficit
*As measured in mice. Defined as the dose required to produce 50% surviva
#Percent of animals which survived at the dose indicated.

The next data set deals with NMDA-induced responses. Conditions: cited from earlier work.
For data set [2], the system named is NMDA. Conditions: in words; cited from earlier work.
For data set [3], the target named is NMDA-associated ion channel. The data set can be described thus: Displacement of [3H]-TCP from its binding site in rat frontal cortex homogenates. Conditions: functional binding assay without added spermidine. From the text:
Ability to Displace [^3 H]-TCP from the NMDA Ion Channel
*Functional binding assay without added spermidine.
(Displacement assays read how much labelled ligand stays bound in the presence of the test substance.)

Another data set deals with cerebral ischemia. The settings on record: in vivo; cited from earlier work.
For data set [4] the following is noted: in vivo; cited from earlier work.
For data set [5], the system named is high-affinity PCP binding site in the NMDA-associated ion channel. The settings on record: cited from earlier work.
Data set [6] is described as follows: Traction reflex deficit (ataxia) in mice. Conditions: mouse, in vivo, ip, dose which produced the deficit in 50% of animals tested.
From the text: In fact, the separation between a compound's NMDA-antagonist activity and ataxic activity (often expressed as an "efficacy ratio" of the ED50 's of these two activities) has been extensively used to evaluate its therapeutic usefulness versus its liabilities. In our studies, PCP is approximately equipotent in its abilities to antagonize NMDA-induced lethality in mice and cause ataxia as measured by the traction reflex deficit model, giving an efficacy ratio (ED50 /TD50) of approximately 1.4 (Table 1, infra).
as §1
^@ As measured in mice. Defined as the dose which produced the defici
in 50% of animals tested.

For data set [7] the following is noted: cited from earlier work.

In the case of `c1ccc(C2(N3CCCCC3)CCCCC2)cc1` [PCP, phencyclidine], the “ED50 Inhibition of NMDA-Induced Lethality” value (shortened to “ED50 Inhibition”) in the data set on NMDA [1] worked out at 1.9 mg/kg. In addition, the “Antagonism of NMDA-induced responses” value in the data set on NMDA-induced responses is “noncompetitively antagonize NMDA-induced responses”. Moreover, the “Antagonism of NMDA-induced lethality (background statement)” value with NMDA [2] is “antagonizes NMDA-induced lethality”. In data set [3], this compound had an IC50 of 0.0282 µM. The “Protection against cell death in cerebral ischemia models” value in the data set on cerebral ischemia is reported as “protects against cell death in cerebral ischemia models”.

Turning to `CC12CNC(Cc3ccc(Br)cc31)c1ccccc12` (single isomer, unassigned; (+)) [Example 6, (+)-10,11-Dihydro-3-bromo-5-methyl-10,5-(iminomethano)-5H -dibenzo[a,d]cycloheptene], the “ED50 Inhibition” value in the data set on NMDA [1] was 2.2 mg/kg. For the same compound, the IC50 in data set [3] stood at 0.089 µM.

Take `CC12CNC(Cc3ccc(Br)cc31)c1ccccc12` (single isomer, unassigned; (-)) [Example 5, (-)-10,11-Dihydro-3-bromo-5-methyl-10,5-(iminomethano)-5H -dibenzo[a,d]cycloheptene]: the “Percent of animals which survived at the dose indicated” value (“Percent of animals which survived” below) with NMDA [1] (5 mg/kg) is recorded as 40%. In [3], the IC50 is 1.01 µM.

Turning to `CC12CNC(Cc3ccc(Cl)cc31)c1ccccc12` (stereo not shown) [Example 3, 10,11-Dihydro-3-chloro-5-methyl-10,5-(iminomethano)-5H-dibenzo[a,d]cycloheptene], in the data set on NMDA [1] (5 mg/kg), the “Percent of animals which survived” value is reported as 90%.

Consider `CC12CNC(Cc3ccc(F)cc31)c1ccccc12` (stereo not shown) [Example 4, 10,11-Dihydro-3-fluoro-5-methyl-10,5-(iminomethano)-5H -dibenzo[a,d]cycloheptene], for which, in the data set with NMDA [1] (5 mg/kg), the “Percent of animals which survived” value came to 90%.

On to `CN1CC[C@@]23CCCC[C@@H]2[C@@H]1Cc1ccc(O)cc13` [Dextrorphan, dextrorphan], for which, in the data set on NMDA [1], the “ED50 Inhibition” value turned out to be 13 mg/kg.

Regarding `CC12CNC(Cc3ccccc31)c1ccc(Br)cc12` (stereo not shown) [Example 2, 10,11-Dihydro-7-bromo-5-methyl-10,5-(iminomethano)-5H-dibenzo[a,d]cycloheptene], the “Percent of animals which survived” value in the data set with NMDA [1] (20 mg/kg) came to 60%. The IC50 in data set [3] worked out at 0.11 µM.

With `C[C@]12N[C@H](Cc3ccccc31)c1ccccc12` [MK-801], in the data set with NMDA [1], the “Efficacy Ratio (ED50/TD50)” value was determined as 0.9 and the “ED50 Inhibition” value worked out at 0.19 mg/kg. Besides, the “Antagonism of NMDA-induced lethality (background statement)” value in the data set with NMDA [2] is recorded as “antagonizes NMDA-induced lethality”. In data set [3], this compound registered a half-maximal inhibitory concentration (IC50) of 0.0026 µM. For the same compound, the “Drug discrimination: generalization for PCP” value in data set [4] is recorded as “generalizes for PCP”. Moreover, the “Competition for the high-affinity PCP binding site” value in [5] is “competes for the high-affinity PCP binding site”. For the same compound, the “Protection against cell death in cerebral ischemia models” value in the data set on cerebral ischemia was “protects against cell death in cerebral ischemia models”.

For the compound `CC12CNC(Cc3ccc(Br)cc31)c1ccccc12` (stereo not shown) [Example 1, 10.11-Dihydro-3-bromo-5-methyl-10,5-(iminomethano)-5H -dibenzo[a,d]cycloheptene], in the data set on NMDA [1], the “Efficacy Ratio (ED50/TD50)” value was found to be 3.2 and the “ED50 Inhibition” value stood at 4.6 mg/kg. This compound had a TD50 in data set [6] of 14.7 mg/kg. Also, the IC50 in [3] was determined as 0.192 µM.

As to `COc1ccc2c(c1)[C@]13CCCC[C@@H]1[C@H](C2)N(C)CC3` [Dextromethorphan], in the data set on NMDA [1], the “Efficacy Ratio (ED50/TD50)” value is on record as 2.1 and the “ED50 Inhibition” value is reported as 21 mg/kg. For the same compound, the “Potency in antagonizing NMDA-induced lethality vs PCP and MK-801” value in the data set on NMDA [1] (in words) was “not as potent as PCP and MK-801”. In the data set with NMDA-induced responses, the “Antagonism of NMDA-induced responses” value is given as “noncompetitively antagonizes NMDA-induced responses”. Also, the IC50 in data set [3] came to 0.745 µM. Also, in data set [7], the Metabolism in man entry is listed as “metabolized to dextrorphan in man”.
